The source made the active and inactive calls. No cut-off for these calls is given here.
How the values were obtained:
Vasopressin V2 receptor = Vasopressin V2 receptor (Homo sapiens, UniProt P30518); assay: Radiometric AVPR2 binding assay (Eurofins #287610)
[1] = molecular target: Serine/threonine-protein kinase A-Raf (Homo sapiens) (UniProt P10398); assay: Inhibition of A-Raf(h) at 10.0 µM in the Eurofins Kinase panel; details: Compound concentration 10.0 uM
[2] = molecular target: CDK9/cyclin T1 (Homo sapiens) (UniProt O60563+P50750); assay: Inhibition of CDK9/cyclin T1(h) at 10.0 µM in the Eurofins Kinase panel; type: protein-complex assay; details: Compound concentration 10.0 uM
[3] = molecular target: Serine/threonine-protein kinase Chk1 (Homo sapiens) (UniProt O14757); assay: Inhibition of CHK1(h) at 10.0 µM in the Eurofins Kinase panel; details: Compound concentration 10.0 uM
[4] = molecular target: Casein kinase I isoform alpha (Homo sapiens) (UniProt P48729); assay: Inhibition of CK1alpha(h) at 10.0 µM in the Eurofins Kinase panel; details: Compound concentration 10.0 uM
[5] = molecular target: Casein kinase I isoform delta (Homo sapiens) (UniProt P48730); assay: Inhibition of CK1delta(h) at 10.0 µM in the Eurofins Kinase panel; details: Compound concentration 10.0 uM
[6] = molecular target: Casein kinase II subunit alpha' (Homo sapiens) (UniProt P19784); assay: Inhibition of CK2alpha2(h) at 10.0 µM in the Eurofins Kinase panel; details: Compound concentration 10.0 uM
[7] = molecular target: Epithelial discoidin domain-containing receptor 1 (Homo sapiens) (UniProt Q08345); assay: Inhibition of DDR1(h) at 10.0 µM in the Eurofins Kinase panel; details: Compound concentration 10.0 uM
[8] = molecular target: Ephrin type-A receptor 2 (Homo sapiens) (UniProt P29317); assay: Inhibition of EphA2(h) at 10.0 µM in the Eurofins Kinase panel; details: Compound concentration 10.0 uM
[9] = molecular target: Ephrin type-A receptor 3 (Homo sapiens) (UniProt P29320); assay: Inhibition of EphA3(h) at 10.0 µM in the Eurofins Kinase panel; details: Compound concentration 10.0 uM
[10] = molecular target: Ephrin type-A receptor 4 (Homo sapiens) (UniProt P54764); assay: Inhibition of EphA4(h) at 10.0 µM in the Eurofins Kinase panel; details: Compound concentration 10.0 uM
[11] = molecular target: Ephrin type-A receptor 5 (Homo sapiens) (UniProt P54756); assay: Inhibition of EphA5(h) at 10.0 µM in the Eurofins Kinase panel; details: Compound concentration 10.0 uM
[12] = molecular target: Ephrin type-B receptor 3 (Homo sapiens) (UniProt P54753); assay: Inhibition of EphB3(h) at 10.0 µM in the Eurofins Kinase panel; details: Compound concentration 10.0 uM
[13] = molecular target: G protein-coupled receptor kinase 4 (Homo sapiens) (UniProt P32298); assay: Inhibition of GRK4(h) at 10.0 µM in the Eurofins Kinase panel; details: Compound concentration 10.0 uM
[14] = molecular target: G protein-coupled receptor kinase 5 (Homo sapiens) (UniProt P34947); assay: Inhibition of GRK5(h) at 10.0 µM in the Eurofins Kinase panel; details: Compound concentration 10.0 uM
[15] = molecular target: LIM domain kinase 1 (Homo sapiens) (UniProt P53667); assay: Inhibition of LIMK1(h) at 10.0 µM in the Eurofins Kinase panel; details: Compound concentration 10.0 uM
[16] = molecular target: Myosin light chain kinase (Homo sapiens) (UniProt Q32MK0); assay: Inhibition of MLCK(h) at 10.0 µM in the Eurofins Kinase panel; details: Compound concentration 10.0 uM
[17] = molecular target: Serine/threonine-protein kinase 24 (Homo sapiens) (UniProt Q9Y6E0); assay: Inhibition of MST3(h) at 10.0 µM in the Eurofins Kinase panel; details: Compound concentration 10.0 uM
[18] = molecular target: Myosin light chain kinase 2, skeletal/cardiac muscle (Homo sapiens) (UniProt Q9H1R3); assay: Inhibition of MYLK2(h) at 10.0 µM in the Eurofins Kinase panel; details: Compound concentration 10.0 uM
[19] = molecular target: Serine/threonine-protein kinase 38 (Homo sapiens) (UniProt Q15208); assay: Inhibition of NDR1(h) at 10.0 µM in the Eurofins Kinase panel; details: Compound concentration 10.0 uM
[20] = molecular target: Mitogen-activated protein kinase 13 (Homo sapiens) (UniProt O15264); assay: Inhibition of SAPK4(h) at 10.0 µM in the Eurofins Kinase panel; details: Compound concentration 10.0 uM
[21] = molecular target: Serine/threonine-protein kinase ULK3 (Homo sapiens) (UniProt Q6PHR2); assay: Inhibition of ULK3(h) at 10.0 µM in the Eurofins Kinase panel; details: Compound concentration 10.0 uM
[22] = molecular target: Serine/threonine-protein kinase VRK1 (Homo sapiens) (UniProt Q99986); assay: Inhibition of VRK1(h) at 10.0 µM in the Eurofins Kinase panel; details: Compound concentration 10.0 uM
[23] = molecular target: Wee1-like protein kinase 2 (Homo sapiens) (UniProt P0C1S8); assay: Inhibition of Wee1B(h) at 10.0 µM in the Eurofins Kinase panel; details: Compound concentration 10.0 uM
ATR/ATRIP (Homo sapiens) = ATR/ATRIP (Homo sapiens) (UniProt Q13535+Q8WXE1); assay: Inhibition of ATR/ATRIP(h) at 10.0 µM in the Eurofins Kinase panel; type: protein-complex assay; details: Compound concentration 10.0 uM
[24] = molecular target: DNA-dependent protein kinase catalytic subunit (Homo sapiens) (UniProt P78527); assay: Inhibition of DNA-PK(h) at 10.0 µM in the Eurofins Kinase panel; details: Compound concentration 10.0 uM
[25] = molecular target: PI3-kinase p110-alpha/p85-alpha (Homo sapiens) (UniProt P27986+P42336); assay: Inhibition of PI3 Kinase (p110a/p85a)(h) at 10.0 µM in the Eurofins Kinase panel; type: protein-complex assay; details: Compound concentration 10.0 uM
[26] = molecular target: 5-hydroxytryptamine receptor 5A (Homo sapiens) (UniProt P47898); details: Compound concentration 10.0 uM
[27] = molecular target: D(1B) dopamine receptor (Homo sapiens) (UniProt P21918); details: Compound concentration 10.0 uM
[28] = molecular target: Sigma intracellular receptor 2 (Homo sapiens) (UniProt Q5BJF2); details: Compound concentration 10.0 uM
[29] = molecular target: Adenosine receptor A2a (Homo sapiens) (UniProt P29274); details: Compound concentration 10.0 uM
[30] = molecular target: Beta-2 adrenergic receptor (Homo sapiens) (UniProt P07550); details: Compound concentration 10.0 uM
[31] = molecular target: D(1A) dopamine receptor (Homo sapiens) (UniProt P21728); details: Compound concentration 10.0 uM
[32] = molecular target: Endothelin-1 receptor (Homo sapiens) (UniProt P25101); details: Compound concentration 10.0 uM
[33] = molecular target: Sodium-dependent noradrenaline transporter (Homo sapiens, UniProt P23975); details: Compound concentration 10.0 uM
Vasopressin V1a receptor = Vasopressin V1a receptor (Homo sapiens, UniProt P37288)
[34] = molecular target: Activin receptor type-2A (Homo sapiens) (UniProt P27037); assay: Inhibition of ACTR2(h) at 10.0 µM in the Eurofins Kinase panel; details: Compound concentration 10.0 uM

SMILES	Ki (Vasopressin V2 receptor)	inhibition [1]	inhibition [2]	inhibition [3]	inhibition [4]	inhibition [5]	inhibition [6]	inhibition [7]	inhibition [8]	inhibition [9]	inhibition [10]	inhibition [11]	inhibition [12]	inhibition [13]	inhibition [14]	inhibition [15]	inhibition [16]	inhibition [17]	inhibition [18]	inhibition [19]	other results
O=c1n(Cc2cncn2-c2cccc(Cl)c2)nc(-c2ccc(Cl)cc2)n1C[C@H](O)C(F)(F)F	> 10 µM (not active)	2.57%	-1.79%	1.73%	-1.11%	-5.22%	6.42%	0.92%	-5.2%	1.3%	0.23%	-7.8%	7.39%	-1.52%	-0.58%	0.42%	1.74%	5.64%	3.49%	-2.95%	inhibition [20]: -3.8%; inhibition [21]: 6.3%; inhibition [22]: 15.7%; inhibition [23]: 7.62%; inhibition (ATR/ATRIP (Homo sapiens)): 10.2%; inhibition [24]: -5.25%; inhibition [25]: -1.29%; inhibition [26]: -4.02%; inhibition [27]: 19.6%; inhibition [28]: 9.61%; inhibition [29]: 1%; inhibition [30]: 0%; inhibition [31]: -6%; inhibition [32]: -3%; inhibition [33]: 8%; inhibition (Vasopressin V1a receptor; Compound concentration 10.0 uM): 28%; inhibition [34]: 6.32%
C[C@H](O)c1nc(Cn2nc(-c3ccc(Cl)cc3)n(C[C@H](O)C(F)(F)F)c2=O)nn1-c1cccc(Cl)c1 [PECAVAPTAN]	0.0006 µM (active)	1.05%	-3.05%	2.42%	-1.65%	-3.11%	-3.46%	7.3%	-2%	-7.49%	-0.37%	-3.72%	1.81%	-0.06%	2.6%	0.57%	1.69%	3.02%	3.01%	-4.67%	inhibition [20]: -3.83%; inhibition [21]: 10.9%; inhibition [22]: 12.3%; inhibition [23]: 7.48%; inhibition (ATR/ATRIP (Homo sapiens)): -5.29%; inhibition [24]: -4.2%; inhibition [25]: -2.88%; inhibition [26]: 3.65%; inhibition [27]: 1.94%; inhibition [28]: 27.7%; inhibition [29]: 4%; inhibition [30]: 9%; inhibition [31]: 1%; inhibition [32]: 18%; inhibition [33]: 62%; inhibition (Vasopressin V1a receptor; Compound concentration 0.01 uM): 65%; inhibition [34]: 5.43%

Reference: ChEMBL document CHEMBL5463729, “Data for DCP probe BAY 1753011” (2023)
